How the values were obtained:
synaptic GABAA receptors = assay: Miniature inhibitory postsynaptic currents (mIPSCs) in hippocampal neurons; assay type: cell-based, rat
[1] = test system: spontaneous interictal-like discharges (IIDs) in slices from mTLE patients; assay: Multielectrode array recording of postoperative hippocampal-subicular slices from mTLE patients; assay type: cell-based, human; settings: for effect on proportion of slices displaying IIDs: p<0.05
Protocol: (§1) For all experiments on hippocampal cultures, neurons were pre-incubated for 2 hours with either DMSO, PCPZ or CLP257 in a CO2 incubator set at 37° C. Drugs were added directly to the culture medium. For electrophysiology experiments, neurons were also recorded in presence of these drugs in the bath. For biochemistry experiments on rat hippocampo-cortical slices, slices were incubated with either DMSO (vehicle), CLP257, PCPZ, WNK463 or sodium orthovanadate for 2 hours in interface chambers set at 37° C. For human tissue experiments, slices were pre-incubated with either DMSO, CLP257 or PCPZ for 2 hours in interface chambers set at 37° C. and then also recorded in presence of these compounds.
Patients or their legal guardians gave informed consent to participate in the study. Patients ([…], 3 males, 4 female, age range: 16-54 years) diagnosed with mesial temporal lobe epilepsy with hippocampal sclerosis underwent multimodal preoperative neurological, neurophyschological and psychiatric evaluations as well as video-electroencephalographic recording, magnetic resonance imaging and fluorodeooxyglugose positron emission tomography. Cortectomies were performed at Sainte-Anne Hospital by neurosurgeons B. Devaux and B. Turak and at Pitié-Salpêtriére Hospital by neurosurgeons S. Clemenceau and B. Mathon. Cortical specimens collected in the operating room were immediately transported in ice-cold (0-4° C.), oxygenated solution (O2/CO2 95/5%), containing (in mM): N-methyl-d-glucamine 93, KCl 2.5, NaH2PO4 1.2, NaHCO3 30, HEPES 20, D-glucose 20, ascorbic acid 5, sodium pyruvate 3, MgSO4 10 and CaCl2 0.5 (300-310 mOsm, pH7.4) and transported within 15 minutes to the laboratory. Transverse hippocampal-subicular slices (400 m thick) were prepared in the same solution using a vibratome (HM650V, Microm). They were maintained for 20-30 minutes at 37° C. and then at room temperature in an interface chamber containing artificial cerebrospinal fluid (ACSF) composed of (in mM): D-glucose 10, KCl 3.5, NaHOC3 26, NaH2PO4 1.25, NaCl 126, CaCl2 1.6 and MgCl2 1.2 (290 mOsm), equilibrated with 5% CO2 in 95% 02.
Multielectrode array recordings were performed using a MEA2100 station (Multi Channel Systems) equipped with a 120-microelectrode array chamber (custom 12×10 layout, 30 μm TiN electrodes spaced 1 mm vertical and 1.5 mm horizontal). Slices were maintained in the recording chamber using a home-made platinum-nylon harp and superfused with pre-warmed (37° C.) oxygenated ACSF at a rate of 6 ml/min. Slices were imaged using a video-microscope table (MEA-VMT1, Multi Channel Systems) in order to register the location of electrodes with respect to the slice. Extracellular signals were acquired at a sampling rate of 10 kHz using Multi Channel Experimenter (Multi Channel Systems) and analyzed offline using homemade software (Matlab, The Mathworks).

OSR1 = assay: Immunoblot of OSR1 phosphorylation and expression in hippocampo-cortical slices; assay type: cell-based, rat; settings: vs DMSO
Protocol: as §1
8-weeks old Sprague Dawley male rats were anesthetized by intraperitoneal ketamine/xylazine injection (120/10 mg/kg) and perfused transcardially with ice-cold (0-4° C.), oxygenated solution (O2/CO2 95/5%), containing (in mM): N-methyl-d-glucamine 93, KCl 2.5, NaH2PO4 1.2, NaHCO330, HEPES 20, D-glucose 20, ascorbic acid 5, sodium pyruvate 3, MgSO4 10 and CaCl2) 0.5 (300-310 mOsm, pH7.4). Brains were removed and transverse hippocampo-cortical slices (400 m thick) were prepared in the same solution using a vibratome (HM650V, Microm). Slices were then incubated for 2-hours with DMSO, the KCC2 enhancers (CLP257, PCPZ, WNK43) or sodium orthovanadate in an interface chamber containing artificial cerebrospinal fluid (ACSF) composed of (in mM): D-glucose 10, KCl 3.5, NaHOC3 26, NaH2PO4 1.25, NaCl 126, CaCl2) 1.6 and MgCl2 1.2 (290 mOsm), equilibrated with 5% CO2 in 95% 02. After the treatments, slices were washed with cold PBS, instantaneously frozen with liquid nitrogen and stored at −80° C.
Slices were mechanically lysed on ice, using a 2 mL Dounce, in a buffer containing (in mM): Tris/HCl, pH 7.5 50, EGTA 1, EDTA 1, sodium orthovanadate 1, sodium-B-glycerophosphate 10, sodium fluoride 50, sodium pyrophosphate 5, sucrose 270, benzamidine 1, phenylmethylsulfonyl fluoride 2, Triton […], (v/v) 2-mercaptoethanol 0.1% and protease inhibitors (Roche). After complete homogenization, samples were centrifuged (16,000×g at 4° C. for 10 min) and the supernatant was collected. Protein quantification was done using Pierce BCA Protein Assay kit (Thermo Scientific) with BSA as standard.
Samples were subjected to electrophoresis on polyacrylamide gradient gels (4-12% bis-tris gels) and transferred to nitrocellulose membranes. Membranes were rinsed with TBS-tween solution (TBST; Invitrogen) and blocked with 5% (w/v) skim milk. The membranes were then immunoblotted in 5% (w/v) skim milk in TBST with a primary antibody against KCC2 (rabbit, 07-432; Millipore; 1:1000), or phosphotyrosine (mouse, clone 4G10, Millipore, 1:1000), and a mouse primary antibody against neuron-specific beta-III tubulin overnight at 4° C. (clone 2G10; T8578; Sigma-Aldrich; 1:1000). They were then washed three times with distillated water, three times with TBST-milk solution and incubated for one hour at RT with goat secondary antibodies anti-rabbit IRDye 800 (1:3000; LI-COR), goat anti-mouse IRDye 700 (1:3000; LI-COR) or donkey anti-sheep DyLight 800 (1:3000; Rockland). Membranes were then washed again with TBST three times and one time with TBS. Fluorescence was detected and the relative intensities of immunoblot bands were determined using Odyssey infrared imaging system (LI-COR Bioscience). […]

[2] = 100 μM CLP257, 2 h, slices from 5 out of 6 patients
[3] = 100 μM CLP257, 2 h, slices from the remaining patient

Compound | mIPSCs decay time constant (synaptic GABAA receptors; 10 μM PCPZ, before drug 10.66±0.80) [ms] | mIPSCs amplitude (synaptic GABAA receptors; 10 μM PCPZ, before drug 42.49±2.54) [pA] | mTLE patients whose slices showed suppressed IIDs ([1]; 10 μM PCPZ, 2 h) | change of IID amplitude ([1]; 10 μM PCPZ, 2 h, group I (5 mTLE patients)) | reduction of IID frequency ([1]; 10 μM PCPZ, 2 h, group I (5 mTLE patients, responders)) [%] | change of IID amplitude ([1]; 10 μM PCPZ, 2 h, group II (2 patients)) | change of IID frequency ([1]; 10 μM PCPZ, 2 h, group II (2 patients, non-responders)) | effect on proportion of slices displaying IIDs ([1]; 10 μM PCPZ, 2 h incubation vs DMSO) | change of OSR1 phosphorylation (S325 residue) (OSR1; 10 μM PCPZ, 2 h) | change of total expression of OSR1 (OSR1; 10 μM PCPZ, 2 h) | mIPSCs decay time constant (synaptic GABAA receptors; 100 μM CLP257, before drug 12.36±0.75) [ms] | mIPSCs amplitude (synaptic GABAA receptors; 100 μM CLP257, before drug 42.32±3.40) [pA] | patients whose slices showed reduced IID frequency ([1]; 100 μM CLP257, 2 h) | change of IID amplitude [1, 2] | reduction of IID frequency [1, 2] [%] | change of IID amplitude [1, 3] [%] | change of IID frequency [1, 3] | effect on proportion of slices displaying IIDs ([1]; 100 μM CLP257, 2 h incubation vs DMSO) | change of OSR1 phosphorylation (S325 residue) (OSR1; 100 μM CLP257, 2 h) | change of total expression of OSR1 (OSR1; 100 μM CLP257, 2 h) [%]
CN1CCN(CCCN2c3ccccc3Sc3ccc(Cl)cc32)CC1 [PCPZ, prochlorperazine] | 10.17 ± 0.71 | 42.92±2.55 | 5 out of 7 | +9.0% | 97.55±13.8 | +18.2±4.8% | +25.5±15.9% | significantly reduced | +11.80±23.50% | +26.3±12.8% | – | – | – | – | – | – | – | – | – | –
O=C1N=C(N2CCCCN2)S/C1=C\c1ccc(F)cc1O [CLP257, (5Z)-5-[(4-Fluoro-2-hydroxyphenyl)methylene]-2-(tetrahydro-1-(2H)-pyridazinyl)-4(5H)-thiazolone] | – | – | – | – | – | – | – | – | – | – | 12.53 ± 1.01 | 43.77±2.86 | 5 out of 6 | +134.4% | 96.5±2.31 | −24.5 | +12.6% | significantly reduced | +11.50±18.50% | −2.24±8.27

Reference: US20240197728A1, “METHODS AND PHARMACEUTICAL COMPOSITIONS FOR TREATING REFRACTORY EPILEPSY” (INSERM (INSTITUT NATIONAL DE LA SANTÉ ET DE LA RECHERCHE …, priority 2021, published 2024)
